Data set [1] has as its target T1, SH3-2 domain of NCK1 (Homo sapiens, UniProt P16333).
T1 construct: To amplify the NCK1 SH3-2 domain, the primers; 10xHis tag with TEV site (vector pSF-OXB20-NH2-10HIS) (N, cleaved yes); made in house; host or cells: E. coli C43(DE3)
Briefly: Isothermal titration calorimetry (ITC) binding to NCK1 SH3-2 domain. The procedure, abridged: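 Measured at 25 °C, pH 8.0 (10 mM sodium buffer, sodium chloride), by calorimetric titration of 3-7.5 mM peptide into 0.125-0.3 mM recombinant NCK1 SH3-2 domain with His tag removed, using 20 injections. Affinities are means of three experiments, fitted with stoichiometry 0.8-1.2.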
For orientation: ITC needs no label: the signal is the heat of the interaction.

Data set [2] can be described thus: 28-day pharmacodynamic and liver toxicity study in C57BL/6 mice. It is filed as in vivo, mouse. Conditions: 28 days; for body weight: 15 or 30 mg/kg IP daily; for signs of physiological or hepatic toxicity: 15 or 30 mg/kg daily IP. The text has this: Animals: C57BL/6 male mice (−3 months) were purchased from Charles River, UK. All animals were housed and tested following European (Directive on the Protection of Animals used for Scientific Purposes, 2010/63/EU) and UK Home Office regulations. Experiments were approved by the University Ethics Board and carried out in accordance with the Animal (Scientific Procedures) Act 1986 and following ARRIVE guidelines.
Treatments: Mice were randomized in to the five experimental groups: Control (n=9); MD17, 15 mg/kg (n=6); MD17, 30 mg/kg (n=6); MD20, 15 mg/kg (n=6); and MD20, 30 mg/kg (n=6). MD17 and MD20 compounds were administered to mice once daily via intraperitoneal (IP) injection for a period of 28 consecutive days at a dose of either 15 or 30 mg/kg. Peptides were kept in −20 °C and dissolved in sterile phosphate buffered saline (PBS) freshly every day before the injection. Control mice received a daily PBS injection. Three mice died during the study, and the final number of animals in each group was: Control (n=9); MD17, 15 mg/kg (n=5); MD17, 30 mg/kg, (n=6); MD20, 15 mg/kg (n=5); and MD20, 30 mg/kg (n=5). All mice had ad libitum access to food and water and were kept in a 12 h light/dark cycle.
Bodyweights and body mass composition: body weights were recorded during the study and fat and lean mass composition was analysed using an EchoMRI scanner (EchoMedical Systems, Houston, TX, U.S.A.).
Fasted glucose: All animals were 5 h-fasted and tail glucose measured using an AlphaTRAK 2 glucose strips and glucometer (Abbot, UK).
Serum assays: Trunk-derived blood was collected from 5 h-fasted mice in to serum separator microtubes and kept at −80 °C. Serum was used for insulin (#EZRMI-13K, Merck), leptin (#90030, Crystal Chem), free fatty acids (FFA; #mak044, Sigma-Aldrich), alanine and aspartate aminotransferases (ALT and AST; #ab105134 and #ab105135, Abcam) analyses.
Statistical analyses: Data were expressed as means±SEM and were analysed using one- or two-way ANOVA with Bonferroni post hoc tests, as appropriate. GraphPad Prism (V8, GraphPad Software, Inc., San Diego, California, USA) was used for analyses. P-values <0.05 were considered significant.

As for Ac-PRPPKR-NH2 [MD20, Ac-PRPPKR-NH2], the Kd (commonly the equilibrium constant for the complex coming apart) in data set [1] (Alanine scanning of the MD20 6-mer peptide, ITC, 25 °C, pH 8.0) is not above 300 µM. Moreover, the Kd in data set [1] (Peptide truncation analysis, ITC, 25 °C, pH 8.0) is not above 300 µM. Besides, in data set [1] (ability to bind SH3-2 domain of NCK1, stated in text), the Kd was less than 193 µM. In data set [2] (30 mg/kg IP daily, vs control), the “% change in fat mass” value is recorded as “decreased” and the “percentage change in body weight pre- versus post-treatment” value is on record as “significant decrease in % change”. Moreover, in data set [2], the body weight result is “No statistically significant differences” and the “signs of physiological or hepatic toxicity” value is “did not induce any obvious signs of physiological or hepatic toxicity”.
In the case of Ac-PPPEHIPPPPRPPKR-NH2 [MD17], in data set [1] (Alanine scanning of the MD17 15-mer peptide, ITC, 25 °C, pH 8.0), the equilibrium dissociation constant (Kd) was not above 300 µM. Moreover, in data set [2], the body weight entry was “No statistically significant differences” and the “signs of physiological or hepatic toxicity” value was “did not induce any obvious signs of physiological or hepatic toxicity”.

The values are drawn from patent US20260365696A1, “INHIBITORS OF PTP1B / NCK1 INTERACTION AND METHODS OF MAKING AND USING SAME” (Radella Pharmaceuticals LLC, priority 2023, published 2026).
